PubChem BioAssay (NCI)
Values joined by “and” are separate entries in the source; they are usually repeats but may differ in a detail not shown here. Equal entries are not always repeated.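 Compound exposure: 48 hours, 5 concentrations, 96-well plates. GI50: concentration for 50% inhibition of growth. TGI marks complete inhibition of growth.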

Key:
Assay in all cases: inhibition of tumour cell growth, NCI panel, 48 h
[1] = test system: 786-0 renal
[2] = test system: CCRF-CEM leukemia
[3] = test system: IGROV1 ovarian
[4] = test system: NCI/ADR-RES ovarian
[5] = test system: OVCAR-5 ovarian
[6] = test system: SF-539 CNS
[7] = test system: SK-OV-3 ovarian
[8] = test system: SNB-19 CNS
[9] = test system: T-47D breast
[10] = test system: EKVX NSCLC

| Structure (SMILES) | GI50 [1] | TGI [1] | GI50 [2] | TGI [2] [µM] | GI50 [3] | TGI [3] | GI50 [4] | TGI [4] | GI50 [5] | TGI [5] | GI50 [6] | TGI [6] | GI50 [7] | TGI [7] | GI50 [8] | TGI [8] | GI50 [9] [µM] | TGI [9] [µM] | GI50 [10] | TGI [10] |
| --- | --- | --- | --- | --- | --- | --- | --- | --- | --- | --- | --- | --- | --- | --- | --- | --- | --- | --- | --- | --- |
| COc1cc(C2CC(c3cc(C)ccc3C)=NN2c2ccc(S(=O)(=O)NC(=O)NCc3ccccc3)cc2)cc(OC)c1OC (centres undefined) | 3.79 µM | 23.5 µM | 3.15 µM | 18.6 | 3.95 µM | 19.8 µM | 4.18 µM | 31.7 µM | 4.19 µM | 26.1 µM | 2.02 µM | 4.69 µM | 4.98 µM | 18.4 µM | 3.75 µM | 43.8 µM | 4.19 | 30.1 |  |  |
| COc1cccc(C2NC(=S)NC(C)=C2C(=O)Nc2ccc(F)c(Cl)c2)c1 (centres undefined) | > 50 µM | > 50 µM |  |  | 27.6 µM | > 50 µM | 18.2 µM | > 50 µM | 12.1 µM | 38.9 µM | > 50 µM | > 50 µM | > 50 µM | > 50 µM | > 50 µM | > 50 µM | > 50 | > 50 | 22.8 µM | > 50 µM |
| CC1OC(OC2CC(O)C3(CO)C4C(O)CC5(C)C(C6=CC(=O)OC6)CCC5(O)C4CCC3(O)C2)C(O)C(O)C1O (centres undefined) | < 0.0129 µM | < 0.0179 µM |  |  | < 0.0161 µM | 0.384 µM | < 0.0122 µM | < 0.0152 µM | 0.0147 µM | 0.0311 µM | < 0.0132 µM | < 0.0182 µM | 0.0157 µM | 0.0552 µM | 0.0296 µM | 0.177 µM | < 0.0121 | 0.0342 | < 0.0107 µM | < 0.0142 µM |
| CC1=C(c2cc(C(=O)Nc3ccc(Cl)c(Cl)c3)nc(N)n2)Sc2ccccc2N1 |  | > 100 µM |  | > 100 |  | > 100 µM |  |  |  | > 100 µM |  | > 100 µM |  | > 100 µM |  | > 100 µM |  |  |  | > 100 µM |
| CC[O-].Cc1ccc2cccc([O-])c2n1.Cc1ccc2cccc([O-])c2n1.Cc1ccc2cccc([O-])c2n1.[Ti+4] | 28.9 µM | > 57.9 µM | 6.97 µM | 38.8 | 43.2 µM | > 100 µM |  |  | > 65 µM | > 100 µM | 40.4 µM | > 100 µM | > 68.9 µM | > 100 µM | > 53.9 µM | > 100 µM |  |  | > 46 µM | > 73.5 µM |
| CNc1ccc(-c2cc(=O)oc3ccc(Cl)cc23)cc1 | 0.133 µM and 0.0442 µM | > 100 µM | 0.146 µM and 0.0494 µM | > 100 |  | > 100 µM | 0.0371 µM and 0.0363 µM |  | 0.795 µM and 0.457 µM | > 100 µM | 0.0527 µM and 0.0255 µM | 0.481 µM and 0.109 µM | 0.218 µM and 0.107 µM | > 100 µM | 0.23 µM and 0.0717 µM | > 100 µM |  |  | 0.589 µM and 0.279 µM | > 100 µM |
| COC(=O)Nc1nc2cc3c(cc2s1)OCCO3 | > 50 µM | > 50 µM | > 50 µM | > 50 | > 50 µM | > 50 µM | > 50 µM | > 50 µM | > 50 µM | > 50 µM | > 50 µM | > 50 µM | > 50 µM | > 50 µM | > 50 µM | > 50 µM | > 50 | > 50 |  |  |
| CN(C)CCN=Cc1c2ccccc2c(=O)n2c1oc1ccccc12 | 11.6 µM | 25.3 µM | 4.36 µM | 62.8 | 10.6 µM | 27.6 µM | 13.7 µM | 32.6 µM | 15.7 µM | 30.5 µM | 2.96 µM | 8.81 µM | 8.44 µM | 24.3 µM | 7.45 µM | 21.4 µM |  |  | 6.76 µM | 21.4 µM |
| COc1ccc(-c2cc(/C=C3\C(=O)Nc4ccc(OC)cc43)[nH]n2)cc1 | > 100 µM | > 100 µM | > 100 µM | > 100 | > 100 µM | > 100 µM | 31.8 µM | > 100 µM | > 100 µM | > 100 µM | 6.67 µM | > 100 µM | 73.2 µM | > 100 µM | 77.2 µM | > 100 µM | > 100 | > 100 |  |  |
| C=C1Oc2nc3ccccc3c(=O)n2C1(C)C |  | > 100 µM |  | > 100 |  | > 100 µM |  |  |  | > 100 µM |  | > 100 µM |  | > 100 µM |  | > 100 µM |  |  |  | > 100 µM |
| O=C(O)CCC1(Br)CCCCC(Br)C1=O (centres undefined) |  | > 100 µM |  | > 100 |  | > 100 µM |  |  |  | > 100 µM |  | > 100 µM |  | > 100 µM |  | > 100 µM |  |  |  | > 100 µM |
| CN(c1ccccc1)C1C(=O)N(c2ccccc2)C1/C=C/c1ccccc1 (centres undefined) |  | > 100 µM |  | > 100 |  | > 100 µM |  |  |  | > 100 µM |  | > 100 µM |  | > 100 µM |  | > 100 µM |  |  |  | > 100 µM |
| CC(=O)OCC1OC(OC2=C(CC=C(Cl)Cl)C(=O)c3ccccc3C2=O)C(OC(C)=O)C(OC(C)=O)C1OC(C)=O (centres undefined) | 16.6 µM | 31.8 µM | 0.894 µM | > 100 | 0.869 µM | 3.11 µM | 4.23 µM | 51.9 µM | 11.8 µM | 28.6 µM | 4.09 µM | 14.6 µM | 15.1 µM | 28.7 µM | 11.8 µM | 24.8 µM | 1.99 | 5.41 |  |  |
| NCC1OC(OC2C(CO)OC(OC3C(O)C(N)CC(N)C3OC3OC(CO)C(O)C(O)C3N)C2O)C(N)C(O)C1O (centres undefined) | > 50 µg/mL | > 50 µg/mL |  |  | > 50 µg/mL | > 50 µg/mL | > 50 µg/mL | > 50 µg/mL | > 50 µg/mL | > 50 µg/mL | > 50 µg/mL | > 50 µg/mL | > 50 µg/mL | > 50 µg/mL | > 50 µg/mL | > 50 µg/mL |  |  | > 50 µg/mL | > 50 µg/mL |
| O=C(O)C#CCO |  | > 100 µM |  | > 100 |  | > 100 µM |  |  |  | > 100 µM |  | > 100 µM |  | > 100 µM |  | > 100 µM |  |  |  | > 100 µM |
